Assay results reported in ChEMBL document CHEMBL5260810, “Inhibition of bromodomain-containing protein 9 for the prevention of epigenetically-defined drug resistance” (Bioorg Med Chem Lett, 2017).

Key:
[1] = target: Bromodomain-containing protein 4 (Homo sapiens, UniProt O60885); assay: Displacement of biotinylated small-molecule ligand from recombinant His-tagged BRD4 bromodomain 1 (unknown origin) measured after 10 mins by TR-FRET assay
[2] = target: Transcription initiation factor TFIID subunit 1 (Homo sapiens, UniProt P21675); assay: Displacement of biotinylated small-molecule ligand from recombinant His-tagged TAF1 bromodomain 2 (unknown origin) measured after 10 mins by TR-FRET assay
Chain of Transcription initiation factor TFIID subunit 1 (P21675 whole entry): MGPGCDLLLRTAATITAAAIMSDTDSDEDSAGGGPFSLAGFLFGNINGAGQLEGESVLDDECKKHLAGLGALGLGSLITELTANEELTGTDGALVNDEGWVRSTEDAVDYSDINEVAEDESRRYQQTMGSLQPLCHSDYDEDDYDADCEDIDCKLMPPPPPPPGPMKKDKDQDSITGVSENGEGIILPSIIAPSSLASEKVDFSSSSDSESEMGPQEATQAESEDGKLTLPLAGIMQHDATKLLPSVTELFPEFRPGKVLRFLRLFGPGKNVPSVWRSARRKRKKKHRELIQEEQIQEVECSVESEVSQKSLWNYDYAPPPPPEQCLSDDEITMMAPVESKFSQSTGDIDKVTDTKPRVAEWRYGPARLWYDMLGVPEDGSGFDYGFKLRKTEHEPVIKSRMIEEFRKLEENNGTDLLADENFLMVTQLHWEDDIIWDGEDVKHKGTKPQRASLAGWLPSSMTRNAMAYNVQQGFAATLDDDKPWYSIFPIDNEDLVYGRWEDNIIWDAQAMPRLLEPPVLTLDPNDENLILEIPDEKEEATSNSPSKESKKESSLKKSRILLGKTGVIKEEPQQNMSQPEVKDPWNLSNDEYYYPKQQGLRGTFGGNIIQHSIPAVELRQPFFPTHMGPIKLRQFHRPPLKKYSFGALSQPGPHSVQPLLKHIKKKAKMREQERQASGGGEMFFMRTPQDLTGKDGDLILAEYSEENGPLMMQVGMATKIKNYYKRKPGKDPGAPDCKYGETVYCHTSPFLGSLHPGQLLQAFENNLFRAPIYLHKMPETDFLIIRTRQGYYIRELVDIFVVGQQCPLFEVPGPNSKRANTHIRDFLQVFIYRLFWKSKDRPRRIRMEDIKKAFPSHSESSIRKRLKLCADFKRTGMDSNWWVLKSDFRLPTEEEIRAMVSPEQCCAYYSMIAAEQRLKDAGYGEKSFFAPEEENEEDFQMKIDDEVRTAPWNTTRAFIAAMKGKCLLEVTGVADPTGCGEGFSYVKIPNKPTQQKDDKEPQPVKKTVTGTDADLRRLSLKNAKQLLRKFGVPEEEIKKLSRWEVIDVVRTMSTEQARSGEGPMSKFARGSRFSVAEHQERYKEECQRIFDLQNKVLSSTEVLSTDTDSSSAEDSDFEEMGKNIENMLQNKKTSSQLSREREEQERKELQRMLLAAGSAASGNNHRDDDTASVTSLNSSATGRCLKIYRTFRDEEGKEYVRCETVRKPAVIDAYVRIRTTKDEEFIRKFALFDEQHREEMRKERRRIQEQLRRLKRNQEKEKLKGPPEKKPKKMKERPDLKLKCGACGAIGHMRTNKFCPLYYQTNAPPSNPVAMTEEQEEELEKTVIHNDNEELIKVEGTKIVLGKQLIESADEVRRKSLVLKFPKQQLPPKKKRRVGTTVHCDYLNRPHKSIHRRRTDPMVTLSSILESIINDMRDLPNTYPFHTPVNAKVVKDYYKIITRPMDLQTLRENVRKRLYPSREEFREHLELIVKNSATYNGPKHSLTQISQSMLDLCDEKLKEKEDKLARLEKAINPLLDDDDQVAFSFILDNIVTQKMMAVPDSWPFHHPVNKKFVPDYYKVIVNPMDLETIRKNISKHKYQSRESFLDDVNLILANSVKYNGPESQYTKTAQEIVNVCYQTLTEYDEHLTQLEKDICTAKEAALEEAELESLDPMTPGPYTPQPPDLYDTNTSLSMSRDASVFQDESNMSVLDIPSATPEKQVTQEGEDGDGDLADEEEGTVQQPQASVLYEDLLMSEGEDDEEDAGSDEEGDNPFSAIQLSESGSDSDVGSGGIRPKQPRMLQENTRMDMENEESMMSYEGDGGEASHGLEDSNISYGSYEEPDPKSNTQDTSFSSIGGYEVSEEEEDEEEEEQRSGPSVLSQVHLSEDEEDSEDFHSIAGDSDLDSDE

CA46 = assay: Cytotoxicity against human CA46 cells measured after 8 days; type: functional, cell-based; conditions: CA46, 192 h
EB2 = assay: Cytotoxicity against human EB2 cells measured after 8 days; type: functional, cell-based; conditions: EB2, 192 h
[3] = Cytotoxicity against human MOLM16 cells measured after 8 days; type: functional, cell-based, MOLM-16; conditions: MOLM16, 192 h
NCI-H1838 = assay: Cytotoxicity against human NCI-H1838 cells measured after 8 days; type: functional, cell-based; conditions: NCI-H1838, 192 h
NCI-H1581 = assay: Cytotoxicity against human NCI-H1581 cells measured after 8 days; type: functional, cell-based; conditions: NCI-H1581, 192 h
NCI-H1155 = assay: Cytotoxicity against human NCI-H1155 cells measured after 8 days; type: functional, cell-based; conditions: NCI-H1155, 192 h
[4] = Cytotoxicity against human NCI-H322T cells measured after 8 days; type: functional, cell-based; conditions: 192 h
NCI-H661 = assay: Cytotoxicity against human NCI-H661 cells measured after 8 days; type: functional, cell-based; conditions: NCI-H661, 192 h
NCI-H82 = assay: Cytotoxicity against human NCI-H82 cells measured after 8 days; type: functional, cell-based; conditions: NCI-H82, 192 h
AU565 = assay: Cytotoxicity against human AU565 cells measured after 8 days; type: functional, cell-based; conditions: AU565, 192 h
BT-549 = assay: Cytotoxicity against human BT-549 cells measured after 8 days; type: functional, cell-based; conditions: BT-549, 192 h
T47D = assay: Cytotoxicity against human T47D cells measured after 8 days; type: functional, cell-based; conditions: 192 h
[5] = Cytotoxicity against human ATRFLOX cells measured after 8 days; type: functional, cell-based; conditions: 192 h
PC-3 = assay: Cytotoxicity against human PC-3 cells measured after 8 days; type: functional, cell-based; conditions: PC-3, 192 h
[6] = Cytotoxicity against human OUMS-23 cells measured after 8 days; type: functional, cell-based; conditions: OUMS-23, 192 h
[7] = Cytotoxicity against human 501A cells measured after 8 days; type: functional, cell-based; conditions: 192 h
A-375 = assay: Cytotoxicity against human A-375 cells measured after 8 days; type: functional, cell-based; conditions: A-375, 192 h
MEL-JUSO = assay: Cytotoxicity against human MEL-JUSO cells measured after 8 days; type: functional, cell-based; conditions: 192 h
[8] = target: Bromodomain-containing protein 3 (Homo sapiens, UniProt Q15059); assay: Binding affinity to human partial length BRD3 bromodomain 2 (G306 to P416 residues) expressed in bacterial expression system by BROMOscan assay
Chain of Bromodomain-containing protein 3 (Q15059 whole entry, the tested form may be a part): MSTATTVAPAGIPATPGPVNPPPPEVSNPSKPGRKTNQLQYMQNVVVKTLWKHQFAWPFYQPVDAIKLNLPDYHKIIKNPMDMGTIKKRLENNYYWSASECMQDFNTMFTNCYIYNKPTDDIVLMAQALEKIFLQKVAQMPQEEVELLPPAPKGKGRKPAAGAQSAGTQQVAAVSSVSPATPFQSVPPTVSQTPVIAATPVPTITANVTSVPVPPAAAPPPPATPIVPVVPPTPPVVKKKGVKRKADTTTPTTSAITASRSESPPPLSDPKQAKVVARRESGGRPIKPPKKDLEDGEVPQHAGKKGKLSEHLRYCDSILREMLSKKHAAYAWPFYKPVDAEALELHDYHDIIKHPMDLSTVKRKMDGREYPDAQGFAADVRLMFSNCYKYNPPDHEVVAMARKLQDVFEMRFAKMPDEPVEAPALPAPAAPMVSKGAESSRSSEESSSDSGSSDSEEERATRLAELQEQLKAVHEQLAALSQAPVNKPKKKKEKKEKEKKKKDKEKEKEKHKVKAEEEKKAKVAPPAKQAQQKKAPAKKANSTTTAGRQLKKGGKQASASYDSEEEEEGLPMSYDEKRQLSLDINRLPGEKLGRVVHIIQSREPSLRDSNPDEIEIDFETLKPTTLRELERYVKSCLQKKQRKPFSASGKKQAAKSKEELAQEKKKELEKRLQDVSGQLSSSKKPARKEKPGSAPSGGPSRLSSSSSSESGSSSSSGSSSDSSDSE

[9] = target: Chromatin remodeling regulator CECR2 (Homo sapiens, UniProt Q9BXF3); assay: Binding affinity to human partial length CECR2 (P423 to D543 residues) expressed in bacterial expression system by BROMOscan assay
Chain of Chromatin remodeling regulator CECR2 (Q9BXF3 whole entry, the tested form may be a part): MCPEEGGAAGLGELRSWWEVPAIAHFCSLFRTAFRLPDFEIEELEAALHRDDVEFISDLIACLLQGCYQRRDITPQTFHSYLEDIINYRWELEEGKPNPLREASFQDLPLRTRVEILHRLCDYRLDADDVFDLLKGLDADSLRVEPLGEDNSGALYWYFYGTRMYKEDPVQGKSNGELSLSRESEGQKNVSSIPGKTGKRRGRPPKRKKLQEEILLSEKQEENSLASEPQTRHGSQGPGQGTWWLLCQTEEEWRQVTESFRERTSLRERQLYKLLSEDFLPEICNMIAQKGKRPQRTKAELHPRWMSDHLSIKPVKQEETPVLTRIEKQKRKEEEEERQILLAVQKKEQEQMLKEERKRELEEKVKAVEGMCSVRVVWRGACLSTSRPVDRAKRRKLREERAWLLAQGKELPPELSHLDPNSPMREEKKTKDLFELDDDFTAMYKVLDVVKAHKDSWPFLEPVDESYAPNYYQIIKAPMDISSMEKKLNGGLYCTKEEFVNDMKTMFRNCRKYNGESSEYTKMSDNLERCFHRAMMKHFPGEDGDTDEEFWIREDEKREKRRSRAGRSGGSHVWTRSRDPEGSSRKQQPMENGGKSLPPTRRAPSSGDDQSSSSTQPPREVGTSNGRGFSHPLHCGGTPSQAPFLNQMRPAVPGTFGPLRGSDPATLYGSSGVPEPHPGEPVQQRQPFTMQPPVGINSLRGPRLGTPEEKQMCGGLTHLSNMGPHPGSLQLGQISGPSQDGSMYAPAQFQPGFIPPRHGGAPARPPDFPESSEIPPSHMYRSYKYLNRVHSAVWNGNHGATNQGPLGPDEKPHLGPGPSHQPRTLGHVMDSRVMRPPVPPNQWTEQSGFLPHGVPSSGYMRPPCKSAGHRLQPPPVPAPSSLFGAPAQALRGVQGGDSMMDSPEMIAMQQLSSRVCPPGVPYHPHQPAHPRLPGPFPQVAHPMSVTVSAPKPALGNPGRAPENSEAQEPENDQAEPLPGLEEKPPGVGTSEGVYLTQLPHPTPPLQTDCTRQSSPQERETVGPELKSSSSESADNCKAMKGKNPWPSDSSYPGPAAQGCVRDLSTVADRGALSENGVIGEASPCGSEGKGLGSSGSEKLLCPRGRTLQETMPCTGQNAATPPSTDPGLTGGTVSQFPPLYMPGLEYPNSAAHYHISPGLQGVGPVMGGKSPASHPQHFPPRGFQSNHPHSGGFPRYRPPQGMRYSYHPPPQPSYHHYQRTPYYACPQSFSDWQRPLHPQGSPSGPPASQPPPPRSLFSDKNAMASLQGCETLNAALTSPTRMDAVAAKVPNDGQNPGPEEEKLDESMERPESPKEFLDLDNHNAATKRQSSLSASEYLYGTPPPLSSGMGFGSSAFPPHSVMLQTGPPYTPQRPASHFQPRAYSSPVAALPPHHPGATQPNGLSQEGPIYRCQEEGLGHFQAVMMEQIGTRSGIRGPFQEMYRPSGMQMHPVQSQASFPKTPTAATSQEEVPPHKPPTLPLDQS

Protein polybromo-1 = Protein polybromo-1 (Homo sapiens, UniProt Q86U86); assay: Binding affinity to human partial length PBRM1 bromodomain 5 (S645 to D766 residues) expressed in bacterial expression system by BROMOscan assay
[10] = target: Dual specificity protein kinase CLK2 (Homo sapiens) (UniProt P49760); assay: Inhibition of CLK2 (unknown origin) at 1 uM relative to control
Chain of Dual specificity protein kinase CLK2 (Homo sapiens) (P49760 whole entry, looked up): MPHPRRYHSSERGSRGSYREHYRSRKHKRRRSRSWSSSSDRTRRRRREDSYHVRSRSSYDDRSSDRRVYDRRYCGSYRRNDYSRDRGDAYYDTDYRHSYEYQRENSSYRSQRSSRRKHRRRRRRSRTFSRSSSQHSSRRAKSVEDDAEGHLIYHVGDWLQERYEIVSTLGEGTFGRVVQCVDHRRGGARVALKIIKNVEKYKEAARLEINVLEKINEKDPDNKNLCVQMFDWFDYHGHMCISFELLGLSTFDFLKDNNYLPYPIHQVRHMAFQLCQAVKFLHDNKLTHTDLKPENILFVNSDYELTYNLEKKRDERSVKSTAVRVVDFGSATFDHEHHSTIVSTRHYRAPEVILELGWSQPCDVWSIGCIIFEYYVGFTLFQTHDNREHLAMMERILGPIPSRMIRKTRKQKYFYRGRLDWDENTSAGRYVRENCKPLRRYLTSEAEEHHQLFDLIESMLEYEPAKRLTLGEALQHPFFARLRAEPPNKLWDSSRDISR

[11] = target: T1, Myosin light chain kinase (Homo sapiens) (UniProt Q32MK0); assay: Inhibition of MYLK3 (unknown origin) at 1 uM relative to control
T1 sequence (whole entry): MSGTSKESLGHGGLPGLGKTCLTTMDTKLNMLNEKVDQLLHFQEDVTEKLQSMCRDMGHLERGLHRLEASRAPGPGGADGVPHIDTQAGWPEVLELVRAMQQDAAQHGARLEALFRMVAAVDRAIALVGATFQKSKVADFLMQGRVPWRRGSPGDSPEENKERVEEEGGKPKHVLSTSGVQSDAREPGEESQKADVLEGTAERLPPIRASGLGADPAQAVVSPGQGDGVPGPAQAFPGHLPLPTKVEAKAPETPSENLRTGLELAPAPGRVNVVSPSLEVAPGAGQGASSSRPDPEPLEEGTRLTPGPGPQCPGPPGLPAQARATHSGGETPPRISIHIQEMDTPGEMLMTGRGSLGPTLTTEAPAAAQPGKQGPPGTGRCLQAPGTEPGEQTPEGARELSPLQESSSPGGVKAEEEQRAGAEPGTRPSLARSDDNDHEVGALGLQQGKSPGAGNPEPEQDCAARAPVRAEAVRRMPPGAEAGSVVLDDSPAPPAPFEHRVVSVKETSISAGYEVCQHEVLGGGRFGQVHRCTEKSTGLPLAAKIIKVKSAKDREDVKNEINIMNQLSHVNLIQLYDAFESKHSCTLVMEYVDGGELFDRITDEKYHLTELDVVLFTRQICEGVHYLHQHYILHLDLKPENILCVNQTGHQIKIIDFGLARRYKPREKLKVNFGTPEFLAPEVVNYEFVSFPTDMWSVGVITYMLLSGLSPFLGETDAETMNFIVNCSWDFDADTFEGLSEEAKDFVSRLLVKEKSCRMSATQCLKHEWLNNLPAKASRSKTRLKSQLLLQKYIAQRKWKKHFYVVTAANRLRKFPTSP

[12] = target: T2, Endothelin-1 receptor (Homo sapiens) (UniProt P25101); assay: Displacement of [125I]-endothelin-1 from human recombinant ETA receptor at 10 uM after 120 mins by scintillation counting analysis relative to control
T2 sequence (whole entry): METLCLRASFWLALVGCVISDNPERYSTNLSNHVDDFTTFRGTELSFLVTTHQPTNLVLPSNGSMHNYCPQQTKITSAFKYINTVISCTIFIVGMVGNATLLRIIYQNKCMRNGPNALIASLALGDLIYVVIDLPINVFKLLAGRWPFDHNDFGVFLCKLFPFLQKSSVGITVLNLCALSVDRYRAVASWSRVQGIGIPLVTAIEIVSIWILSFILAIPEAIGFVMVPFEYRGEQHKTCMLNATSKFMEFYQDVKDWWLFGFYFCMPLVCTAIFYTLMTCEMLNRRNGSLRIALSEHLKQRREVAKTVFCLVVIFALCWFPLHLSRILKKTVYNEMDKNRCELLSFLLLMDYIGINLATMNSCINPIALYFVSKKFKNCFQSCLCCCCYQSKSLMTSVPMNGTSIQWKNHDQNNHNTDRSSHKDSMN

[13] = target: Muscarinic acetylcholine receptor M3 (Homo sapiens) (UniProt P20309); assay: Displacement of [3H]4-DAMP from human recombinant M3 receptor at 10 uM after 60 mins by scintillation counting analysis relative to control
[14] = target: Sodium-dependent serotonin transporter (Homo sapiens) (UniProt P31645); assay: Displacement of [3H]-imipramine from recombinant human 5-HT transporter at 10 uM after 60 mins by scintillation counting relative to control

| SMILES | IC50 [1] | IC50 [2] | IC50 (CA46) | IC50 (EB2) | IC50 [3] | IC50 (NCI-H1838) | IC50 (NCI-H1581) | IC50 (NCI-H1155) | IC50 [4] | IC50 (NCI-H661) | IC50 (NCI-H82) | IC50 (AU565) | IC50 (BT-549) | IC50 (T47D) | IC50 [5] | IC50 (PC-3) | IC50 [6] | Kd [8] | Kd [9] | Kd (Protein polybromo-1) | also measured |
| --- | --- | --- | --- | --- | --- | --- | --- | --- | --- | --- | --- | --- | --- | --- | --- | --- | --- | --- | --- | --- | --- |
| C/C=C/Cn1cc(-c2ccc(C(=O)N3CCOCC3)cc2)c2cc[nH]c2c1=O | 3.4 µM | 1.5 µM | 20 µM | 20 µM | 9.59 µM | 20 µM | 20 µM | 20 µM | 20 µM | 20 µM | 20 µM | 20 µM | 20 µM | 20 µM | 20 µM | 20 µM | 20 µM | 4.4 µM | 3.8 µM | 26 µM | IC50 [7]: 20 µM; IC50 (A-375): 20 µM; IC50 (MEL-JUSO): 20 µM; inhibition [10]: 2%; inhibition [11]: 1.4%; Activity [12]: 10%; Activity [13]: -13%; Activity [14]: 3% |
| C/C=C/Cn1cc(-c2cc(OC)c(C(C)(C)O)cc2OC)c2cc(C)[nH]c2c1=O | > 20 µM | > 20 µM | – | – | – | – | – | – | – | – | – | – | – | – | – | – | – | > 10 µM | > 10 µM | > 10 µM | – |
| C/C=C/Cn1cc(-c2cc(OC)c(C(=O)N3CCOCC3)cc2OC)c2cc(C)[nH]c2c1=O | > 20 µM | > 20 µM | 2 µM | 2 µM | 2 µM | 2 µM | 2 µM | 2 µM | 2 µM | 2 µM | 2 µM | 2 µM | 2 µM | 2 µM | 2 µM | 2 µM | 2 µM | > 10 µM | 3.6 µM | > 10 µM | IC50 [7]: 2 µM; IC50 (A-375): 2 µM; IC50 (MEL-JUSO): 2 µM; inhibition [10]: 7.5%; inhibition [11]: 5%; Activity [12]: 16%; Activity [13]: 3%; Activity [14]: 4% |
| C/C=C/Cn1cc(-c2ccc(C(C)(C)O)cc2OC)c2cc[nH]c2c1=O | 5.1 µM | > 20 µM | 9.85 µM | 20 µM | 17.8 µM | 20 µM | 20 µM | 20 µM | 20 µM | 20 µM | 20 µM | 20 µM | 12.2 µM | 20 µM | 20 µM | 20 µM | 20 µM | 4 µM | > 10 µM | > 10 µM | IC50 [7]: 20 µM; IC50 (A-375): 20 µM; IC50 (MEL-JUSO): 20 µM; inhibition [10]: 8%; inhibition [11]: 2%; Activity [12]: 12%; Activity [13]: 6%; Activity [14]: 3% |
